According to the NIST ThermoML archive (doi:10.1021/acs.jced.8b00160):

What was measured:
[1] = wn = mass fraction of the nth substance listed; conditions: 100 kPa, Liquid, Vibrating tube method
[2] = refractive index (Na D-line) (dimensionless); wn = mass fraction of the nth substance listed; conditions: 100 kPa, Liquid, Standard Abbe refractometry
[3] = refractive index (Na D-line) (dimensionless); conditions: 100 kPa, Liquid, Standard Abbe refractometry

CC(C)O [propan-2-ol] + O
Conditions | mass density, 298.15 K [kg/m3] | mass density, 308.15 K [kg/m3] | mass density, 318.15 K [kg/m3] | refractive index, 298.15 K | refractive index, 308.15 K | refractive index, 318.15 K
[1], w1 = 0.1 | 979.9 | 976.9 | 973.7 | – | – | –
[1], w1 = 0.2 | 966.6 | 958.7 | 954.8 | – | – | –
[1], w1 = 0.3 | 946 | 941.9 | 934.4 | – | – | –
[1], w1 = 0.4 | 925.7 | 916.8 | 911.5 | – | – | –
[1], w1 = 0.5 | 901.7 | 896.2 | 887.6 | – | – | –
[1], w1 = 0.6 | 879 | 871.6 | 862.4 | – | – | –
[2], w1 = 0.1 | – | – | – | 1.3418 | 1.3372 | 1.3356
[2], w1 = 0.2 | – | – | – | 1.3506 | 1.3475 | 1.3447
[2], w1 = 0.3 | – | – | – | 1.3573 | 1.3559 | 1.3531
[2], w1 = 0.4 | – | – | – | 1.3629 | 1.3623 | 1.3596
[2], w1 = 0.5 | – | – | – | 1.367 | 1.3668 | 1.3643
[2], w1 = 0.6 | – | – | – | 1.3705 | 1.3694 | 1.3679

O [water]
[3]
Conditions | refractive index
298.15 K | 1.3324
308.15 K | 1.3302
318.15 K | 1.3298

O=P([O-])([O-])[O-].[K+].[K+].[K+] [tripotassium phosphate] + O
Conditions | mass density, 298.15 K [kg/m3] | mass density, 308.15 K [kg/m3] | mass density, 318.15 K [kg/m3] | refractive index, 298.15 K | refractive index, 308.15 K | refractive index, 318.15 K
[1], w1 = 0.02 | 1015.8 | 1011.9 | 1008.3 | – | – | –
[1], w1 = 0.05 | 1048.6 | 1045 | 1040.4 | – | – | –
[1], w1 = 0.1 | 1106.7 | 1102.7 | 1100.3 | – | – | –
[1], w1 = 0.15 | 1176.8 | 1172.6 | 1171.1 | – | – | –
[1], w1 = 0.2 | 1203.4 | 1199.8 | 1194.9 | – | – | –
[1], w1 = 0.25 | 1226.9 | 1223.5 | 1218 | – | – | –
[1], w1 = 0.3 | 1241.7 | 1237.1 | 1231.8 | – | – | –
[2], w1 = 0.02 | – | – | – | 1.3356 | 1.3346 | 1.3337
[2], w1 = 0.05 | – | – | – | 1.3413 | 1.3402 | 1.3386
[2], w1 = 0.1 | – | – | – | 1.3537 | 1.3512 | 1.3488
[2], w1 = 0.15 | – | – | – | 1.3651 | 1.3632 | 1.3606
[2], w1 = 0.2 | – | – | – | 1.3792 | 1.3768 | 1.3736
[2], w1 = 0.25 | – | – | – | 1.3962 | 1.3928 | 1.3885
[2], w1 = 0.3 | – | – | – | 1.418 | 1.4109 | 1.4029

O=P([O-])([O-])O.[K+].[K+] [dipotassium hydrogen phosphate] + O
298.15 K
Conditions | mass density, [1] [kg/m3] | refractive index, [2]
w1 = 0.02 | 1014.3 | 1.336
w1 = 0.05 | 1040.9 | 1.3401
w1 = 0.1 | 1086.7 | 1.3478
w1 = 0.15 | 1134 | 1.3551
w1 = 0.2 | 1183.1 | 1.3626
w1 = 0.25 | 1234.3 | 1.3697
w1 = 0.3 | 1287.3 | 1.3774
